The text below walks through data of patent US6790855B2 (priority 2000, dated 2004).

The conditions of test [1]: as an analgesic and as a respiratory depressant; cited from earlier work.
The subject of test [2] is mice. Put plainly: radiant heat tailflick assay after topical administration (tail immersed in DMSO drug solution). It counts as in vivo. The note with it: for response reached in dose-response curve: tested immediately; for response reached in dose-response curve / analgesic activity in words: FIG. 2; for analgesic response: constant concentration, FIG. 1a; for analgesic activity in words: dose-response; for peak response: fixed low dose: morphine 1.5 mM, lidocaine 0.9 mM, alone or both together, FIG. 3a; for Opioid ED50 Value: opioid alone or opioid component of fixed-ratio combination.

Test [3] deals with subject's finger. The test can be described thus: radiant light heat source finger latency after topical gel application. As to conditions: Lidocaine alone 0.125 mg/ml or morphine alone 0.25 mg/ml gel, FIG. 7. It counts as in vivo, human.
[4] abbreviates: 2 minutes exposure, listed as free base of lidocaine.
Where [5] appears, read: topical, increasing concentrations, 2 minutes, FIG. 4.

Counter-ions that a name gives are not always drawn.

Turning to `COc1ccc2c3c1O[C@H]1[C@@H](O)C=C[C@H]4[C@@H](C2)N(C)CC[C@@]341` [codeine], the “effectiveness orally relative to parenterally” value in test [1] was “approximately 60%”.

Take `CCN(CC)CC(=O)Nc1c(C)cccc1C` [Lidocaine]: in test [2] (setting [4]), the “response reached in dose-response curve” value worked out at 75%. For the same compound, the “time of decrease to baseline levels” value in test [2] (2 minutes exposure, time action curve over 30 minutes, FIG. 1b) was at most 20 min. For the same compound, the analgesic response in test [2] (exposure 30 seconds) is recorded as 20%; in test [2] (exposure 2 minutes), 70%. Moreover, in test [2] (setting [4]), the “analgesic activity in words” value was “biphasic dose-response curve”. This compound showed a peak response in test [2] of 20%. In addition, the Shift in test [2] (lidocaine ED50, + morphine 3.0 mM vs alone) was 3.1; in test [2] (lidocaine ED50, + morphine 4.5 mM vs alone) it was 3.6; in test [2] (mouse, in vivo) it was 2.5. Moreover, the ED50 in test [2] (topical lidocaine + morphine 1.5 mM) was 1000 µM; in test [2] (topical lidocaine + morphine 3.0 mM), 800 µM; in test [2] (topical lidocaine + morphine 4.5 mM) it was 700 µM; in test [2] (topical, drug alone), 2500 µM. Moreover, the “Lidocaine ED50 Value” in test [2] (topical, tailflick, lidocaine alone (initial portion of curve) or lidocaine component of fixed-ratio combination) turned out to be 2500 µM. For the same compound, the “change in latency compared to baseline, in words” value in test [3] is listed as “Neither morphine nor Lidocaine produced appreciable changes in latency”.

Consider `CN1CC[C@]23c4c5ccc(O)c4O[C@H]2[C@@H](O)C=C[C@H]3[C@H]1C5` [Morphine], for which the “analgesic activity in words” value in test [2] (2 minutes exposure) is “intermediate potency between the two forms of lidocaine”. The compound further returned a peak response in test [2] of 20%. Also, the Shift in test [2] (morphine ED50, + lidocaine 0.45 mM vs alone) amounted to 1.7; in test [2] (morphine ED50, + lidocaine 0.9 mM vs alone) it was 4.1; in test [2] (morphine ED50, + lidocaine 1.8 mM vs alone) it was 4.7. Further, the ED50 in test [2] (topical morphine + lidocaine 0.45 mM) came to 3600 µM; in test [2] (topical morphine + lidocaine 0.9 mM) it was 1500 µM; in test [2] (topical morphine + lidocaine 1.8 mM), 1300 µM; in test [2] (topical, drug alone), 6100 µM. Besides, the “Opioid ED50 Value” in test [2] (topical, tailflick) worked out at 6100 µM. Besides, in test [3], the “change in latency compared to baseline, in words” value is “Neither morphine nor Lidocaine produced appreciable changes in latency”.

With `CN1CC[C@]23CCCC[C@H]2[C@H]1Cc1ccc(O)cc13` [Levorphanol], in test [2] (setting [5]), the ED50 came out at 5000 µM and the “analgesic response in words” value is recorded as “full analgesic responses”. Moreover, the “Opioid ED50 Value” in test [2] (topical, tailflick) amounted to 5000 µM.

Regarding `CCN(CC)CC(=O)Nc1c(C)cccc1C` [Lidocaine HCl], in test [2] (2 minutes exposure, HCl), the “response reached in dose-response curve” value is 50-60% and the “analgesic activity in words” value is on record as “less effective”.
